Laboratory results reported in US9850256B2, “Antibacterial basic biaromatic derivatives with aminoalkoxy substitution” (priority 2014, dated 2017).
≈ marks a conversion by molar mass, not a printed value.

Columns and labels:
Assay in all cases: Bacterial growth minimal inhibitory concentration (microdilution, cation-adjusted Mueller-Hinton Broth)
[1] = test system: E. coli ATCC25922; assay type: cell-based; conditions: quinolone-sensitive strain; for MIC: Escherichia coli, ATCC25922
In short: (§1)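 Broth microdilution in cation-adjusted Mueller-Hinton Broth per CLSI M7-A7; MICs in mg/L. S. aureus A798 is methicillin- and quinolone-resistant, K. pneumoniae T6474 penicillin-, cephalosporin- and quinolone-resistant; E. coli ATCC25922 and P. aeruginosa ATCC 27853 are quinolone-sensitive.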

[2] = test system: S. aureus A798; assay type: cell-based, Staphylococcus aureus; conditions: multiply-resistant strain (methicillin- and quinolone-resistant); for MIC: Staphylococcus aureus, A798
In short: as §1

[3] = test system: P. aeruginosa ATCC 27853; assay type: cell-based, Pseudomonas aeruginosa; conditions: quinolone-sensitive strain; for MIC: Pseudomonas aeruginosa, ATCC27853
In short: as §1

[4] = test system: K. pneumoniae T6474; assay type: cell-based, Klebsiella pneumoniae; conditions: multiply-resistant strain (penicillin-, cephalosporin- and quinolone-resistant); for MIC: Klebsiella pneumoniae, T6474
In short: as §1

| MIC [1] | MIC [2] | MIC [3] | MIC [4] | SMILES | MIC for E. coli ATCC25922 [1] | MIC for S. aureus A798 [2] | MIC for P. aeruginosa ATCC 27853 [3] | MIC for K. pneumoniae T6474 [4] |
| --- | --- | --- | --- | --- | --- | --- | --- | --- |
|  |  |  |  | NC1[C@H]2CN(CCOc3cccc(-c4cccc(CNCC[C@H]5CN(c6ccc7c(n6)NC(=O)CO7)C(=O)O5)c4)c3)C[C@@H]12 (mixture of isomers) [Example $117, 6-{(S)-5-[2-({3′-[2-((1R*,5S*,6RS)-6-amino-3-aza-bicyclo[3.1.0]hex-3-yl)-ethoxy]-biphenyl-3-ylmethyl}-amino)-ethyl]-2-oxo-oxazolidin-3-yl}-4H-pyrido[3,2-b][1,4]oxazin-3-one] | 1 µg/mL | 1 µg/mL | 4 µg/mL | 1 µg/mL |
| 8 µg/mL (≈ 15.8 µM) | 4 µg/mL (≈ 7.9 µM) | 2 µg/mL (≈ 3.95 µM) | 16 µg/mL (≈ 31.6 µM) | NCCOc1cncc(-c2ccnc(CNCC[C@H]3CN(c4ccc5c(n4)NC(=O)CO5)C(=O)O3)c2)n1 [Example $158, 6-{(S)-5-[2-({4-[6-(2-amino-ethoxy)-pyrazin-2-yl]-pyridin-2-ylmethyl}-amino)-ethyl]-2-oxo-oxazolidin-3-yl}-4H-pyrido[3,2-b][1,4]oxazin-3-one] |  |  |  |  |
| 2 µg/mL (≈ 3.58 µM) | 0.25 µg/mL (≈ 0.448 µM) | 2 µg/mL (≈ 3.58 µM) | 2 µg/mL (≈ 3.58 µM) | C[C@H]1[C@@H](Oc2cccc(-c3cccc(CNCC[C@H]4CN(c5ccc6c(n5)NC(=O)CO6)C(=O)O4)c3)n2)CCN1C (relative stereo) [Example $176, 6-[(S)-5-(2-{3-[6-((2S*,3S*)-1,2-dimethyl-pyrrolidin-3-yloxy)-pyridin-2-yl]-benzylamino}-ethyl)-2-oxo-oxazolidin-3-yl]-4H-pyrido[3,2-b][1,4]oxazin-3-one] |  |  |  |  |
| 1 µg/mL (≈ 1.98 µM) | 4 µg/mL (≈ 7.93 µM) | 0.5 µg/mL (≈ 0.991 µM) | 4 µg/mL (≈ 7.93 µM) | NCCOc1ccnc(-c2cccc(CNCC[C@H]3CN(c4ccc5c(n4)NC(=O)CO5)C(=O)O3)c2)c1 [Example $154, 6-[(S)-5-(2-{3-[4-(2-amino-ethoxy)-pyridin-2-yl]-benzylamino}-ethyl)-2-oxo-oxazolidin-3-yl]-4H-pyrido[3,2-b][1,4]oxazin-3-one] |  |  |  |  |
| 1 µg/mL (≈ 1.88 µM) | 0.25 µg/mL (≈ 0.469 µM) | 2 µg/mL (≈ 3.76 µM) | 1 µg/mL (≈ 1.88 µM) | CN1CC(Oc2cncc(-c3cc(CNCC[C@H]4CN(c5ccc6c(n5)NC(=O)CO6)C(=O)O4)ccn3)n2)C1 [Example $189, 6-{(S)-5-[2-({2-[6-(1-methyl-azetidin-3-yloxy)-pyrazin-2-yl]-pyridin-4-ylmethyl}-amino)-ethyl]-2-oxo-oxazolidin-3-yl}-4H-pyrido[3,2-b][1,4]oxazin-3-one] |  |  |  |  |
| 2 µg/mL (≈ 3.58 µM) | 0.25 µg/mL (≈ 0.448 µM) | 4 µg/mL (≈ 7.16 µM) | 4 µg/mL (≈ 7.16 µM) | C[C@H]1C[C@H](Oc2cccc(-c3cccc(CNCC[C@H]4CN(c5ccc6c(n5)NC(=O)CO6)C(=O)O4)c3)n2)CN1C [Example $175, 6-[(S)-5-(2-{3-[6-((3S,5S)-1,5-dimethyl-pyrrolidin-3-yloxy)-pyridin-2-yl]-benzylamino}-ethyl)-2-oxo-oxazolidin-3-yl]-4H-pyrido[3,2-b][1,4]oxazin-3-one] |  |  |  |  |
| 4 µg/mL (≈ 6.96 µM) | 0.125 µg/mL (≈ 0.218 µM) | 8 µg/mL (≈ 13.9 µM) | 8 µg/mL (≈ 13.9 µM) | O=C1COc2ccc(N3C[C@H](CCNCc4cccc(-c5cccc(OCCN6CCOCC6)n5)c4)OC3=O)nc2N1 [Example 23, 6-[(S)-5-(2-{3-[6-(2-morpholin-4-yl-ethoxy)-pyridin-2-yl]-benzylamino}-ethyl)-2-oxo-oxazolidin-3-yl]-4H-pyrido[3,2-b][1,4]oxazin-3-one] |  |  |  |  |
| 1 µg/mL (≈ 1.79 µM) | 0.25 µg/mL (≈ 0.448 µM) | 1 µg/mL (≈ 1.79 µM) | 1 µg/mL (≈ 1.79 µM) | CN1CCC[C@@H]1COc1cccc(-c2cccc(CNCC[C@H]3CN(c4ccc5c(n4)NC(=O)CO5)C(=O)O3)c2)n1 [Example $171, 6-[(S)-5-(2-{3-[6-((R)-1-methyl-pyrrolidin-2-ylmethoxy)-pyridin-2-yl]-benzylamino}-ethyl)-2-oxo-oxazolidin-3-yl]-4H-pyrido[3,2-b][1,4]oxazin-3-one] |  |  |  |  |
| 4 µg/mL (≈ 7.33 µM) | 2 µg/mL (≈ 3.67 µM) | 8 µg/mL (≈ 14.7 µM) | 4 µg/mL (≈ 7.33 µM) | CN1CC[C@H](Oc2cccc(-c3cccc(CNCC[C@H]4CN(c5ccc6c(n5)NC(=O)CO6)C(=O)O4)n3)n2)C1 [Example $129, 6-[(S)-5-(2-{[6′-((S)-1-methyl-pyrrolidin-3-yloxy)-[2,2′]bipyridinyl-6-ylmethyl]-amino}-ethyl)-2-oxo-oxazolidin-3-yl]-4H-pyrido[3,2-b][1,4]oxazin-3-one] |  |  |  |  |
| 2 µg/mL (≈ 3.5 µM) | 0.5 µg/mL (≈ 0.875 µM) | 8 µg/mL (≈ 14 µM) | 2 µg/mL (≈ 3.5 µM) | O=C1COc2ccc(N3C[C@H](CCNCc4cccc(-c5cccc(OCCN6CCCCC6)c5)c4)OC3=O)nc2N1 [Example 13, 6-[(S)-2-oxo-5-(2-{[3′-(2-piperidin-1-yl-ethoxy)-biphenyl-3-ylmethyl]-amino}-ethyl)-oxazolidin-3-yl]-4H-pyrido[3,2-b][1,4]oxazin-3-one] |  |  |  |  |
| 2 µg/mL (≈ 3.67 µM) | 2 µg/mL (≈ 3.67 µM) | 1 µg/mL (≈ 1.84 µM) | 4 µg/mL (≈ 7.34 µM) | O=C1COc2ccc(N3C[C@H](CCNCc4cccc(-c5cccc(OC[C@@H]6CCNC6)n5)c4)OC3=O)nc2N1 [Example $143, 6-[(S)-2-oxo-5-(2-{3-[6-((R)-1-pyrrolidin-3-ylmethoxy)-pyridin-2-yl]-benzylamino}-ethyl)-oxazolidin-3-yl]-4H-pyrido[3,2-b][1,4]oxazin-3-one] |  |  |  |  |
| 0.5 µg/mL (≈ 0.964 µM) | 0.5 µg/mL (≈ 0.964 µM) | 0.5 µg/mL (≈ 0.964 µM) | 2 µg/mL (≈ 3.86 µM) | CNCCOc1cccc(-c2cccc(CNCC[C@H]3CN(c4ccc5c(n4)NC(=O)CO5)C(=O)O3)c2)n1 [Example $163, 6-[(S)-5-(2-{3-[6-(2-methylamino-ethoxy)-pyridin-2-yl]-benzylamino}-ethyl)-2-oxo-oxazolidin-3-yl]-4H-pyrido[3,2-b][1,4]oxazin-3-one] |  |  |  |  |
| 2 µg/mL (≈ 3.67 µM) | 4 µg/mL (≈ 7.33 µM) | 1 µg/mL (≈ 1.83 µM) | 4 µg/mL (≈ 7.33 µM) | O=C1CSc2ccc(N3C[C@@H](CCNCc4cccc(-c5cccc(OC[C@@H]6CCN6)n5)c4)OC3=O)cc2N1 [Example $152, 6-[(R)-5-(2-{3-[6-((S)-1-azetidin-2-ylmethoxy)-pyridin-2-yl]-benzylamino}-ethyl)-2-oxo-oxazolidin-3-yl]-4H-benzo[1,4]thiazin-3-one] |  |  |  |  |
| 2 µg/mL (≈ 3.76 µM) | 4 µg/mL (≈ 7.51 µM) | 4 µg/mL (≈ 7.51 µM) | 4 µg/mL (≈ 7.51 µM) | CN1CC(Oc2cncc(-c3cncc(CNCC[C@H]4CN(c5ccc6c(n5)NC(=O)CO6)C(=O)O4)c3)n2)C1 [Example $190, 6-{(S)-5-[2-({5-[6-(1-methyl-azetidin-3-yloxy)-pyrazin-2-yl]-pyridin-3-ylmethyl}-amino)-ethyl]-2-oxo-oxazolidin-3-yl}-4H-pyrido[3,2-b][1,4]oxazin-3-one] |  |  |  |  |
| 4 µg/mL (≈ 7.36 µM) | 2 µg/mL (≈ 3.68 µM) | 4 µg/mL (≈ 7.36 µM) | 4 µg/mL (≈ 7.36 µM) | N[C@@H]1CC[C@H](Oc2cccc(-c3cccc(CNCC[C@H]4CN(c5ccc6c(n5)NC(=O)CO6)C(=O)O4)c3)c2)C1 [$183, 6-[(S)-5-(2-{[3′-((1S,3R)-3-amino-cyclopentyloxy)-biphenyl-3-ylmethyl]-amino}-ethyl)-2-oxo-oxazolidin-3-yl]-4H-pyrido[3,2-b][1,4]oxazin-3-one] |  |  |  |  |
| 1 µg/mL (≈ 1.93 µM) | 2 µg/mL (≈ 3.86 µM) | 2 µg/mL (≈ 3.86 µM) | 2 µg/mL (≈ 3.86 µM) | NCCCOc1cccc(-c2cccc(CNCC[C@H]3CN(c4ccc5c(n4)NC(=O)CO5)C(=O)O3)c2)c1 [Example 3, 6-[(S)-5-(2-{[3′-(3-amino-propoxy)-biphenyl-3-ylmethyl]-amino}-ethyl)-2-oxo-oxazolidin-3-yl]-4H-pyrido[3,2-b][1,4]oxazin-3-one] |  |  |  |  |
| 2 µg/mL (≈ 3.58 µM) | 1 µg/mL (≈ 1.79 µM) | 4 µg/mL (≈ 7.16 µM) | 8 µg/mL (≈ 14.3 µM) | CN1CCC(Oc2cccc(-c3cccc(CNCC[C@H]4CN(c5ccc6c(n5)NC(=O)CO6)C(=O)O4)c3)n2)CC1 [Example $127, 6-[(S)-5-(2-{3-[6-(1-methyl-piperidin-4-yloxy)-pyridin-2-yl]-benzylamino}-ethyl)-2-oxo-oxazolidin-3-yl]-4H-pyrido[3,2-b][1,4]oxazin-3-one] |  |  |  |  |
| 1 µg/mL (≈ 1.92 µM) | 0.5 µg/mL (≈ 0.962 µM) | 0.5 µg/mL (≈ 0.962 µM) | 1 µg/mL (≈ 1.92 µM) | CNCCOc1cncc(-c2cccc(CNCC[C@H]3CN(c4ccc5c(n4)NC(=O)CO5)C(=O)O3)c2)n1 [Example $164, 6-[(S)-5-(2-{3-[6-(2-methylamino-ethoxy)-pyrazin-2-yl]-benzylamino}-ethyl)-2-oxo-oxazolidin-3-yl]-4H-pyrido[3,2-b][1,4]oxazin-3-one] |  |  |  |  |
| 4 µg/mL (≈ 7.14 µM) | 8 µg/mL (≈ 14.3 µM) | 2 µg/mL (≈ 3.57 µM) | 8 µg/mL (≈ 14.3 µM) | CO[C@H]1CNC[C@H]1Oc1cccc(-c2cccc(CNCC[C@H]3CN(c4ccc5c(n4)NC(=O)CO5)C(=O)O3)c2)n1 (relative stereo) [Example $184, (3R*,4S*)-6-[(S)-5-(2-{3-[6-(4-methoxy-pyrrolidin-3-yloxy)-pyridin-2-yl]-benzylamino}-ethyl)-2-oxo-oxazolidin-3-yl]-4H-pyrido[3,2-b][1,4]oxazin-3-one] |  |  |  |  |
| 1 µg/mL | 0.5 µg/mL | 1 µg/mL | 2 µg/mL | O=C1COc2ccc(N3C[C@H](CCNCc4cccc(-c5cccc(OCC6CNCCO6)n5)c4)OC3=O)nc2N1.O=CO (mixture of isomers) [Example $109, 6-[(S)-5-(2-{3-[6-((RS)-1-morpholin-2-ylmethoxy)-pyridin-2-yl]-benzylamino}-ethyl)-2-oxo-oxazolidin-3-yl]-4H-pyrido[3,2-b][1,4]oxazin-3-one formate] |  |  |  |  |
| 2 µg/mL (≈ 3.66 µM) | 4 µg/mL (≈ 7.32 µM) | 4 µg/mL (≈ 7.32 µM) | 4 µg/mL (≈ 7.32 µM) | CN1CC[C@H](Oc2cncc(-c3cncc(CNCC[C@H]4CN(c5ccc6c(n5)NC(=O)CO6)C(=O)O4)c3)n2)C1 [Example $146, 6-{(S)-5-[2-({5-[6-((S)-1-methyl-pyrrolidin-3-yloxy)-pyrazin-2-yl]-pyridin-3-ylmethyl}-amino)-ethyl]-2-oxo-oxazolidin-3-yl}-4H-pyrido[3,2-b][1,4]oxazin-3-one] |  |  |  |  |
